Laboratory results reported in patent US7807162B2, “Single domain VHH antibodies against von Willebrand factor” (Ablynx N.V., priority 2005, dated 2010).
Several values for one entry are separate records, joined by “and”; a condition that tells them apart may be missing. Identical values can stand only once. One block for each compound: values may come before it.

Legend:
[1] = system: ristocetin-induced platelet aggregation; test: Ristocetin-induced platelet aggregation (RIPA) ex vivo in blood of treated baboons; settings: baboons 4-10; further +1 mg/kg Plavix on top of 5 mg/kg Aspegic + 60 IU/kg Heparin + 1 mg/kg Plavix
Description: Platelet aggregations were performed on a Chronolog whole blood and optical Aggregometer (Model 560CA, Chronolog, USA). PRP was prepared (collected on 0.38 mol/L citrate), by centrifuging the whole blood at 1200 rpm for 5 minutes. The upper fraction containing the PRP was carefully removed. The lower fraction was further centrifuged at 3000 rpm for 10 minutes to prepare platelet poor plasma (PPP). Platelets were counted in PRP and diluted in PPP to a final concentration of 200.000 platelets per microliter. 3 mg/ml ristocetin (DAKO) was added and aggregation was measured.
The GPIb-IX-V dependent platelet aggregation through vWF is measured using ristocetin as a modulator. The % aggregation is measured at each time point and at each dose.

[2] = system: cyclic flow reductions (CFRs) in injured, stenosed femoral artery; test: Folts thrombosis model in baboons: length/inhibition of cyclic flow reductions (CFRs); format: in vivo, baboon (Papio ursinus); settings: for effective dose: Folts model
Description: The study protocol that was applied is the original Folts model and some modifications described below (Folts J D, et al, Circulation. 1976; 54:365-370). Healthy male or female baboons (Papio ursinus) were used. The animals were 8-17 kg of weight and were disease-free for at least 2 weeks prior to use. The baboons were fed with dry standard food only. The baboons were used at different time points. […] Animals were anaesthetized and body temperature is maintained at 37° C. with a heating table. A segment of a femoral artery was dissected free from surrounding tissue. A shunt was placed between the femoral vein and femoral artery to obtain high shear rates. The mean and phasic blood flow was recorded continuously throughout the experiment. Baseline flow was recorded for 20 minutes. […] A clamp was placed over the injured site to create an external stenosis. A gradual decline in blood flow due to platelet adhesion and aggregation was observed. When flow was reduced to zero, blood flow was restored by opening the clamp to dislodge the platelet-rich thrombus. This repetitive pattern of decreasing blood flow following mechanical restoration is referred to as cyclic flow reductions (CFRs). Additional endothelial injury was repeated if needed to finally obtain stable CFRs in these baboons. The number of times the thrombus needed to be dislodged determines the number of CFRs. FIG. 24 illustrates blood flow pattern during the Folts model in baboons. […] This procedure was repeated for several times with escalating doses of the test substance. The anti-thrombotic effect was quantified by comparing the length of CFRs before and after drug administration. When full inhibition of CFRs was observed, a new injury was applied in order to confirm that the inhibition was an effect of the treatment but not of a natural healing phenomenon.

[3] = system: cyclic flow reductions (CFRs) in injured, stenosed femoral artery; test: Folts model in baboons: Aspegic-Heparin-Plavix combination with ALX-0081 on top; format: in vivo, baboon (Papio ursinus); settings: combined with 5 mg/kg Aspirin and 60 IU/kg Heparin
Description: Extra Heparin was administered at different time points to sustain a certain level (aPTT should be at least doubled versus control). […] The anti-thrombotic effect was quantified by comparing the length of CFRs before and after drug administration. When full inhibition of CFRs was observed, a new injury was applied. Epinephrin was injected and continued till the end of the experiment. […] (1), 3, 10 or 30 μg/kg. […] The specifications of the baboons that were used in this study are represented in table 49.

[4] = Bleeding analysis in Folts baboons (blood loss in gauzes); settings: for therapeutic window in the Folts model: antithrombotic effect versus blood loss; for Average of total blood loss: sum of blood loss from the first five doses of test compound, relative to the second control gauze
Description: To analyze bleeding, an incision was made with a scalpel in the groin. This was done at 15 minutes after recording baseline flow, when the injury was made in the artery. Gauzes were inserted in the wound and replaced every 30 minutes just before each new dose of test compound. The amount of blood loss after each dose of test compound was determined by weighing the gauzes.

[5] = design: species or system baboon (Papio ursinus); settings: in vivo
Description: The aPTT values observed during the Folts model studies are summarized. […] In these animals, aPTT values are prolonged from the 30-60 IU/kg dose on, as is also observed in patients. Heparin acts as an anticoagulant by forming a complex with antithrombin and catalyzing the inhibition of activated blood coagulation factors such as XIa, IXa, Xa and thrombin (factor IIa). These factors are all involved in the intrinsic coagulation cascade of which its functionality is measured in the aPTT test.

[6] = PT during the Folts model; format: in vivo, baboon (Papio ursinus); settings: 240 IU/kg dose
ADAMTS-13 = test: Cleavage of recombinant A1-A2-A3 vWF fragment by ADAMTS-13 (Western Blot); format: biochemical, human; settings: control; EDTA in NPP
Description: In a second type of experiment, different reaction mixtures were prepared as summarized in table 60, however, without the addition of the A1A2A3 construct. The A1A2A3 construct is a recombinant fragment consisting out of the A1, A2 and A3 domain of vWF. Mixtures were pre-incubated for 5 minutes at 37° C. after which the A1A2A3 fragment is added and the mixture is incubated in a waterbath overnight at 37° C. […] The blot was blocked for 2 hours at room temperature with blockbuffer (1:1 Odyssey blockbuffer in 1×TBS pH=7.4) and incubated with Rabbit polyclonal anti-vWF (DAKO). Alexa Fluor 680 goat anti-rabbit was used for detection. Scanning was done on the ODYSSEY to detect the degradation products.
In a second assay, a recombinant fragment containing the A1-A2-A3 domain of vWF was mixed with normal pool plasma (NPP) containing ADAMTS-13, resulting in proteolytic cleavage of the fragment which was observed by a Western Blot analysis.

[7] = system: cyclic flow reductions (CFRs) in injured, stenosed femoral artery; test: Use of vWF as an antidote for ALX-0081 in the baboon Folts model; format: in vivo, baboon (Papio ursinus)
Description: The experimental procedure followed the original Folts model with the modifications as described in the previous example 18.
Healthy male baboons (Papio ursinus) were used in this study. The animals were 9-12 kg of weight and were disease-free for at least 2 weeks prior to use. The baboons were fed with dry standard food only.

[8] = Plavix final dose 2.5 mg/kg, individual baboons 9-12, 2.5 mg/kg
[9] = new injury applied at full inhibition of CFRs
[10] = number of experiments with inhibition / total number of independent repeats

- Blood loss relative to the second control gauze, Average ([4]; Plavix final dose 1 mg/kg): 1.4
- Blood loss relative to the second control gauze ([4]; Plavix final dose 1 mg/kg, individual baboons 9-12, 1 mg/kg): 0.6 and 1.3 and 1.6 and 1.2
- Blood loss relative to the second control gauze, Average ([4]; Plavix final dose 2.5 mg/kg): 1.2
- Blood loss relative to the second control gauze [4, 8]: 1.5 and 1.4 and 1.1 and 1.0
- Blood loss relative to the second control gauze, Average ([4]; Plavix final dose 5 mg/kg): 4.5
- Blood loss relative to the second control gauze ([4]; Plavix final dose 5 mg/kg, individual baboons 9-12, 5 mg/kg): 5.1 and 4.7 and 1.4 and 6.6
- Blood loss relative to the second control gauze, Average ([4]; Plavix final dose 10 mg/kg): 7.6
- Blood loss relative to the second control gauze ([4]; Plavix final dose 10 mg/kg, individual baboons 9-12, 10 mg/kg): 6.5 and 4.5 and 5.8 and 13.6
- Blood loss relative to the second control gauze, Average ([4]; Plavix final dose 20 mg/kg): 4.9
- Blood loss relative to the second control gauze ([4]; Plavix final dose 20 mg/kg, individual baboons 9-12, 20 mg/kg): 3.7 and 4.1 and 9.1 and 2.6
- Blood loss relative to the second control gauze ([4]; at the highest dose): up to 9 fold
- Average of total blood loss [4]: 19.4
Compound: COC(=O)[C@H](c1ccccc1Cl)N1CCc2sccc2C1 [Plavix]
- % ristocetin-induced platelet aggregation [1]: 42% and 63% and 66% and 83% and 59% and 76% and 60%
- time after injection at which the inhibitory effect on CFR length started ([2]; 2.5 mg/kg final dose): 10 min
- effective dose [2]: 5 mg/kg
- effective dose ([2]; inhibition of CFRs): 5 mg/kg
- Length of CFRs ([2]; Plavix final dose 1 mg/kg, individual baboons 9, 11, 12, 1 mg/kg): 189 s and 132 s and 179 s
- Length of CFRs [2, 8]: 883 s and 400 s and 258 s and >1800 s
- Length of CFRs ([2]; Plavix final dose 5 mg/kg, individual baboons 9-12): >1800 s
- Length of CFRs ([2]; Plavix final dose 10 mg/kg, individual baboons 9-12): >1800 s
- Length of CFRs ([2]; Plavix final dose 20 mg/kg, individual baboons 9-12): >1800 s
- Length of CFRs ([2]; Plavix-treated, after Epinephrin, individual baboons 9-12): 241 s and 91 s and 83 s and 66 s
- final dose at which full inhibition of CFRs was obtained ([2]; baboon 12): 2.5 mg/kg
- CFRs upon a new injury [2, 9]: CFRs remained inhibited
- Inhibition of CFRs [2, 10]: 4/4
- Inhibition of CFRs after administration of Epinephrin [2, 10]: 0/4
- Inhibition of CFRs after new injury [2, 10]: 4/4
- final dose at which full inhibition of CFRs was obtained ([2]; the other three baboons): 5 mg/kg
- dose of Plavix required for full inhibition, fold lower than Plavix alone [3]: 2.5 fold
- therapeutic window in the Folts model [4]: much more narrow

- dose from which aPTT values are prolonged [5]: 30-60 IU/kg
- effect on the PT time [6]: minor increase in PT
Compound: Heparin
- Length of CFRs ([2]; Heparin final dose 15 IU/kg, individual baboons 6, 7, 8): 630 s and 208 s and 255 s
- Length of CFRs ([2]; Heparin final dose 30 IU/kg, individual baboons 6, 7, 8): 355 s and 241 s and 320 s
- Length of CFRs ([2]; Heparin final dose 60 IU/kg, individual baboons 6, 7, 8): 432 s and 246 s and 332 s
- Length of CFRs ([2]; Heparin final dose 120 IU/kg, individual baboons 6, 7, 8): 610 s and 160 s and 206 s
- Length of CFRs ([2]; Heparin final dose 240 IU/kg, individual baboons 6, 7, 8): >1800 s and 221 s and 169 s
- Length of CFRs ([2]; Heparin-treated, after Epinephrin, baboons 6, 7): 109 s and 65 s
- dose at which full inhibition of CFRs was obtained ([2]; baboon 6, first dose): 15 IU/kg
- CFRs upon a new injury ([2]; baboon 6, highest dose of 240 IU/kg): CFRs were inhibited even after a new injury
- Inhibition of CFRs ([2]; baboons 7 and 8, doses as high as 240 IU/kg): no inhibition of the CFRs could be obtained
- CFRs upon a new injury [2, 9]: the CFRs returned each time
- Inhibition of CFRs [2, 10]: 1/3
- Inhibition of CFRs after administration of Epinephrin [2, 10]: 0/2
- Inhibition of CFRs after new injury [2, 10]: 1/3

Compound: Reopro: drug currently used in the clinic, comparator in the Folts model
- effective dose [2]: 0.25 mg/kg
- effective dose ([2]; inhibition of CFRs, final dose, ALX-0081: + […] dose/kg/hour): 0.17 to 0.42 mg/kg
- Length of CFRs ([2]; Reopro final dose 20 μg/kg, individual baboons 13, 14, 15): 98 s and 82 s and 254 s
- Length of CFRs ([2]; Reopro final dose 70 μg/kg, individual baboons 13, 14, 15): 90 s (2×) and 248 s
- Length of CFRs ([2]; Reopro final dose 170 μg/kg, individual baboons 13, 14, 15): 90 s and >1800 s (2×)
- Length of CFRs ([2]; Reopro final dose 420 μg/kg, individual baboons 13, 14, 15): >1800 s
- Length of CFRs ([2]; Reopro final dose 920 μg/kg, individual baboons 13, 14, 15): >1800 s
- Length of CFRs ([2]; Reopro-treated, after Epinephrin, individual baboons 13, 14, 15): >1200 s
- final dose needed for full inhibition of the CFRs ([2]; baboons 13, 14 and 15, bolus injection only): 0.17 to 0.42 mg/kg
- CFRs upon a new injury [2, 9]: complete inhibition of the CFRs was retained
- Inhibition of CFRs [2, 10]: 3/3
- Inhibition of CFRs after administration of Epinephrin [2, 10]: 3/3
- Inhibition of CFRs after new injury [2, 10]: 3/3
- therapeutic window in the Folts model [4]: much more narrow
- Average of total blood loss [4]: 44

Compound: O=C(O)CN(CCN(CC(=O)O)CC(=O)O)CC(=O)O [EDTA]
- effect on the cleavage of the A1-A2-A3 vWF fragment by ADAMTS-13 (ADAMTS-13): inhibition of cleavage of the fragment

Compound: vWF: vWF evaluated as an antidote for ALX-0081
- reversal of the activity of ALX-0081 on CFRs ([7]; CFRs returned after 250 IU plus extra 250 IU of vWF): can be reversed by administration of vWF
- Length of CFRs ([7]; second 250 IU vWF after 30 μg/kg + 45 μg/kg/hour ALX-0081, baboons 1-3): 246 s and 256 s and 230 s
